In data set [1] the test system is VSV New Jersey strain. Conditions: cited from earlier work.
Data set [2] in a line: Measurement of optimum pH of trypsin-like enzyme. Conditions: at pH 6.0, relative to the enzyme at pH 7.6. It counts as biochemical. How it is done:
50 μl of the solution of the trypsin-like protease obtained in Example 1 was added to 1.5 ml of 0.1M Tris-HCl buffer (pH 8.6) containing 100 μM of a synthetic substrate for trypsin Boc-Phe-Ser-Arg-MCA (MCA=methylcoumarinamide), and the mixture was subjected to incubation at 37° C. for 1 hour. 1 ml of 30% acetic acid was then added, the amount of 7-amino-4-methylcoumarin (AMC) formed was determined by fluorescent assay (fluorescence 440 nm, excitating light 380 nm), and the activity of the enzyme was calculated based thereon. An activity of forming 1 pM of AMC in 1 minute is defined as 1 unit (1 unit=1 pM AMC/min).
The following buffers were prepared for ascertaining trypsin activity at various pH values.
The activity of the trypsin-like enzyme obtained in Example 1 in each buffer was assayed according to the method described in Example 2, and the results are shown in FIG. 2.

The target of data set [3] is T1, trypsin-like enzyme (Homo sapiens, UniProt O60235).
T1 construct: from tissue; host or cells: cough phlegm (sputum) of patients with chronic disease of the respiratory tract
Description: Substrate specificity, synthetic MCA substrates (assay method of trypsin activity). As to conditions: synthetic substrates, pH 8.6. It counts as biochemical.

The subject of data set [4] is fibrinogen. As to the kind of experiment: Influence of trypsin-like enzyme on thrombin-induced coagulation time of fibrinogen. Conditions: fibrinogen 2 mg/ml, 37° C., thrombin 2.5 units/ml; in proportion as the added activity unit increases; FIG. 3. It counts as biochemical. Here is the method:
Fibrinogen was dissolved in 0.01M Tris-HCl buffer (pH 7.4), 0.01M CaCl2 0.15M NaCl so that its concentration could be 2 mg/ml, the trypsin-like enzyme obtained in Example 1 was added with its activity unit changed, the mixture was heated to 37° C., 0.1 ml of this reaction solution was mixed with 0.1 ml of a thrombin solution (2.5 units/ml), and coagulation time was measured on the mixture. In proportion as the added activity unit of the trypsin-like enzyme increases, coagulation time was prolonged.

In data set [5] the test system is influenza viruses. Conditions: in contrast to trypsin; cited from earlier work.
Data set [6] relates to NDV Miyadera strain. As to conditions: cited from earlier work.

T1 sequence (O60235 187-418): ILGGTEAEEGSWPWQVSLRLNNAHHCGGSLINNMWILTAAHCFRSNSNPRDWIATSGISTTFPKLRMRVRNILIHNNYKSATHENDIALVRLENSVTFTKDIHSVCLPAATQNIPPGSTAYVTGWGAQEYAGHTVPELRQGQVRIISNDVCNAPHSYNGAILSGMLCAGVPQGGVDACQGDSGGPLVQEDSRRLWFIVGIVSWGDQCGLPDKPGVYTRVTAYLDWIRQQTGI

On to “trypsin-like enzyme: protease isolated from cough phlegm of patients with chronic respiratory tract disease, amino acid sequence [I] (SEQ ID NO:19)”, for which the “action of inactivating VSV New Jersey strain” value in data set [1] was “inactivating”. Further, in data set [2], the “Inactivation by pH” value is reported as “about 80%”. Moreover, the “chymotrypsin activity, elastase activity, collagenase activity, leucine aminopeptidase activity of the enzyme” value in data set [3] is listed as “did not exhibit”. For the same substance, in data set [4], the coagulation time entry is recorded as “prolonged”. In addition, in data set [5], the “action of inactivating influenza viruses” value was “inactivating”. In data set [6], the “action of inactivating NDV Miyadera strain” value is on record as “inactivating”.
